In publication PMC7932537, “Quantitative profiling of protease specificity” (PLoS Computational Biology, 2021):

Tests used:
MMP-2 = target: T1, MMP-2 (Homo sapiens, UniProt P08253); experiment: K(obs) of individual phage substrates (set of 1369); assay type: biochemical; details: MMP2
T1 sequence (P08253 110-660): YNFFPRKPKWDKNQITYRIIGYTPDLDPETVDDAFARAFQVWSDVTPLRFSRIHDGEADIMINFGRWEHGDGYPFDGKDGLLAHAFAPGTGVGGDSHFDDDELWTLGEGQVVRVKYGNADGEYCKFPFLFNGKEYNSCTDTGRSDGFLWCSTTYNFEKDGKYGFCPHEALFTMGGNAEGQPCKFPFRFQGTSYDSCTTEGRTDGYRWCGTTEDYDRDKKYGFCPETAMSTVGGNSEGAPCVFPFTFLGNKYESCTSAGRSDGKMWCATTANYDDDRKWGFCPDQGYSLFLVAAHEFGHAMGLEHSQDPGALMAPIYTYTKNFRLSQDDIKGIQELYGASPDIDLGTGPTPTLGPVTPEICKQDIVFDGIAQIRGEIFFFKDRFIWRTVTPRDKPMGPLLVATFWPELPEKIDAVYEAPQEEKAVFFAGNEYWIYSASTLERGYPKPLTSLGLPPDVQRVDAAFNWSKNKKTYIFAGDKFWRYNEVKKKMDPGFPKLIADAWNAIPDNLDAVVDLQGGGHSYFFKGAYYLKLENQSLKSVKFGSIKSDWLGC

MMP-9 = MMP-9 (Homo sapiens, UniProt P14780); experiment: as above; assay type: biochemical; details: MMP9, individual phage substrates, set of 1369 peptides
Sequence of MMP-9 (P14780 94-707): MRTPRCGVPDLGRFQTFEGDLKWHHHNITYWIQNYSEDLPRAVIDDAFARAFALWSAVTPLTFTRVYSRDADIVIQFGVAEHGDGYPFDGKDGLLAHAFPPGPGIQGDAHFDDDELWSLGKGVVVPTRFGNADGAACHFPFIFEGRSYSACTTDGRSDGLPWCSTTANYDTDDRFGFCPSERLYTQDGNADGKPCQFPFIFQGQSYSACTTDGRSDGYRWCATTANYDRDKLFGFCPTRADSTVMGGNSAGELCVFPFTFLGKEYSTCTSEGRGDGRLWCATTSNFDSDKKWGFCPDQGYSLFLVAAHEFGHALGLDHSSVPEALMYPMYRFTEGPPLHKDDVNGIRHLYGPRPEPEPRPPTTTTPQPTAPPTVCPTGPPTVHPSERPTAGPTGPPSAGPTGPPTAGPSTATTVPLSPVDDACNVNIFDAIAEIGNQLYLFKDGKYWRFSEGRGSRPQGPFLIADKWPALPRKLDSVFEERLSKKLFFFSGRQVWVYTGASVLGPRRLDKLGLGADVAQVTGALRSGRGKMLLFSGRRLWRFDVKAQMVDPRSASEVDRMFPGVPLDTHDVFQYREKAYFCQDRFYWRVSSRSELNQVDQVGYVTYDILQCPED

[1] = individual phage substrates, set of 1369 peptides, cleavage position marked by '-' in the sequence
[2] = '-' marks the cleavage position (P1-P1')
[3] = individual phage substrate from the set of 1369 peptides, cleavage position marked by the dash in the sequence
[4] = dash in sequence marks cleavage position

| Substance | Kobs (MMP-2; [1]) | Kobs (MMP-9; [2]) | Kobs (MMP-2; [3]) | Kobs (MMP-9; [4]) |
| --- | --- | --- | --- | --- |
| SGLWT-LMATA | 0 M⁻¹ s⁻¹ | 0 M⁻¹ s⁻¹ | – | – |
| SGLYG-LTLTA | 762.325 M⁻¹ s⁻¹ | 201.585 M⁻¹ s⁻¹ | – | – |
| SGMLS-LVITA | 0 M⁻¹ s⁻¹ | 0 M⁻¹ s⁻¹ | – | – |
| SGMSS-LKFTA | 323.705 M⁻¹ s⁻¹ | 0 M⁻¹ s⁻¹ | – | – |
| SGNLA-LKQTA | 0 M⁻¹ s⁻¹ | 0 M⁻¹ s⁻¹ | – | – |
| SGPAA-LQSTA | – | – | 8321.48 M⁻¹ s⁻¹ | 6688.74 M⁻¹ s⁻¹ |
| SGPAG-MHSTA | 12792.1 M⁻¹ s⁻¹ | 7015.91 M⁻¹ s⁻¹ | – | – |
| SGPAP-LVLTA | 12792.1 M⁻¹ s⁻¹ | 6688.74 M⁻¹ s⁻¹ | – | – |
| SGPHL-LIRTA | 0 M⁻¹ s⁻¹ | 386.839 M⁻¹ s⁻¹ | – | – |
| SGPHS-MKLTA | 0 M⁻¹ s⁻¹ | 323.705 M⁻¹ s⁻¹ | – | – |
| SGPHW-LNATA | 3741.87 M⁻¹ s⁻¹ | 10866.7 M⁻¹ s⁻¹ | – | – |
| SGPIP-IRKTA | 12792.1 M⁻¹ s⁻¹ | 12792.1 M⁻¹ s⁻¹ | – | – |
| SGPKQ-LTRTA | 0 M⁻¹ s⁻¹ | 1465.65 M⁻¹ s⁻¹ | – | – |
| SGPLA-STVTA | 0 M⁻¹ s⁻¹ | 3741.87 M⁻¹ s⁻¹ | – | – |
| SGPLA-VRTTA | 12792.1 M⁻¹ s⁻¹ | 12792.1 M⁻¹ s⁻¹ | – | – |
| SGPLG-IFYTA | 12792.1 M⁻¹ s⁻¹ | 12792.1 M⁻¹ s⁻¹ | – | – |
| SGPLS-ILNTA | 8941.32 M⁻¹ s⁻¹ | 12792.1 M⁻¹ s⁻¹ | – | – |
| SGPLS-LRSTA | 12792.1 M⁻¹ s⁻¹ | 12792.1 M⁻¹ s⁻¹ | – | – |
| SGPLS-QSTTA | 1561.44 M⁻¹ s⁻¹ | 7815.03 M⁻¹ s⁻¹ | – | – |
| SGPLT-LNSTA | 2476.66 M⁻¹ s⁻¹ | 10866.7 M⁻¹ s⁻¹ | – | – |
| SGPMA-LKSTA | – | – | 8941.32 M⁻¹ s⁻¹ | 8321.48 M⁻¹ s⁻¹ |
| SGPMG-MRNTA | 5667.28 M⁻¹ s⁻¹ | 5889.62 M⁻¹ s⁻¹ | – | – |
| SGPMH-LRSTA | 8321.48 M⁻¹ s⁻¹ | 10866.7 M⁻¹ s⁻¹ | – | – |
| SGPMS-LLDTA | – | – | 2996.69 M⁻¹ s⁻¹ | 8941.32 M⁻¹ s⁻¹ |
| SGPMS-LRMTA | 7386.83 M⁻¹ s⁻¹ | 12792.1 M⁻¹ s⁻¹ | – | – |
| SGPQA-VVKTA | – | – | 1071.29 M⁻¹ s⁻¹ | 517.582 M⁻¹ s⁻¹ |
| SGPRS-LSQTA | – | – | 12792.1 M⁻¹ s⁻¹ | 8941.32 M⁻¹ s⁻¹ |

| Substance | Kobs (MMP-2; [1]) | Kobs (MMP-9; [2]) | Kobs (MMP-2; [3]) | Kobs (MMP-9; [4]) |
| --- | --- | --- | --- | --- |
| SGPSD-LHATA | 12792.1 M⁻¹ s⁻¹ | 12792.1 M⁻¹ s⁻¹ | – | – |
| SGPSN-MLRTA | 5889.62 M⁻¹ s⁻¹ | 3964.21 M⁻¹ s⁻¹ | – | – |
| SGPSR-ILMTA | – | – | 1071.29 M⁻¹ s⁻¹ | 1513.13 M⁻¹ s⁻¹ |
| SGPSS-LLGTA | 12792.1 M⁻¹ s⁻¹ | 12792.1 M⁻¹ s⁻¹ | – | – |
| SGPVS-LRMTA | – | – | 12792.1 M⁻¹ s⁻¹ | 12792.1 M⁻¹ s⁻¹ |
| SGPWG-LLETA | 2409.72 M⁻¹ s⁻¹ | 12792.1 M⁻¹ s⁻¹ | – | – |
| SGPYN-LRGTA | 12792.1 M⁻¹ s⁻¹ | 12792.1 M⁻¹ s⁻¹ | – | – |
| SGSAR-LTLTA | – | – | 0 M⁻¹ s⁻¹ | 0 M⁻¹ s⁻¹ |
| SGSFN-LTMTA | 0 M⁻¹ s⁻¹ | 418.952 M⁻¹ s⁻¹ | – | – |
| SGSWS-LILTA | 0 M⁻¹ s⁻¹ | 0 M⁻¹ s⁻¹ | – | – |
| SGSYP-LTRTA | – | – | 0 M⁻¹ s⁻¹ | 0 M⁻¹ s⁻¹ |
| SGTWP-LSGTA | 12792.1 M⁻¹ s⁻¹ | 8941.32 M⁻¹ s⁻¹ | – | – |
| SGTWR-LMLTA | – | – | 0 M⁻¹ s⁻¹ | 27.918 M⁻¹ s⁻¹ |
| SGVAP-LILTA | 0 M⁻¹ s⁻¹ | 142.481 M⁻¹ s⁻¹ | – | – |
| SGVAS-LMGTA | – | – | 12792.1 M⁻¹ s⁻¹ | 8941.32 M⁻¹ s⁻¹ |
| SGVFN-LAFTA | 912.511 M⁻¹ s⁻¹ | 201.585 M⁻¹ s⁻¹ | – | – |
| SGVFS-LKLTA | – | – | 654.784 M⁻¹ s⁻¹ | 551.253 M⁻¹ s⁻¹ |
| SGVGA-LNKTA | – | – | 836.403 M⁻¹ s⁻¹ | 56.119 M⁻¹ s⁻¹ |
| SGVGM-LYNTA | – | – | 1373.05 M⁻¹ s⁻¹ | 0 M⁻¹ s⁻¹ |
| SGVHR-LSYTA | – | – | 0 M⁻¹ s⁻¹ | 0 M⁻¹ s⁻¹ |
| SGVKF-LFNTA | – | – | 0 M⁻¹ s⁻¹ | 113.394 M⁻¹ s⁻¹ |
| SGVLS-LRYTA | 1154.21 M⁻¹ s⁻¹ | 2837.92 M⁻¹ s⁻¹ | – | – |
| SGVMK-LQKTA | – | – | 0 M⁻¹ s⁻¹ | 0 M⁻¹ s⁻¹ |
| SGVMR-LVVTA | – | – | 0 M⁻¹ s⁻¹ | 171.876 M⁻¹ s⁻¹ |
| SGVMY-LQVTA | – | – | 0 M⁻¹ s⁻¹ | 654.784 M⁻¹ s⁻¹ |
| SGVNL-LLMTA | 27.918 M⁻¹ s⁻¹ | 0 M⁻¹ s⁻¹ | – | – |
| SGVNR-ISLTA | – | – | 113.394 M⁻¹ s⁻¹ | 0 M⁻¹ s⁻¹ |

| Substance | Kobs (MMP-2; [1]) | Kobs (MMP-9; [2]) | Kobs (MMP-2; [3]) | Kobs (MMP-9; [4]) |
| --- | --- | --- | --- | --- |
| SGVNS-LFTTA | – | – | 323.705 M⁻¹ s⁻¹ | 0 M⁻¹ s⁻¹ |
| SGVNS-LRRTA | 726.013 M⁻¹ s⁻¹ | 0 M⁻¹ s⁻¹ | – | – |
| SGVRA-LISTA | 12792.1 M⁻¹ s⁻¹ | 12792.1 M⁻¹ s⁻¹ | – | – |
| SGVRF-MRQTA | – | – | 231.616 M⁻¹ s⁻¹ | 1513.13 M⁻¹ s⁻¹ |
| SGVRM-LRRTA | 799.117 M⁻¹ s⁻¹ | 2157.02 M⁻¹ s⁻¹ | – | – |
| SGVWG-IRYTA | 654.784 M⁻¹ s⁻¹ | 1925.41 M⁻¹ s⁻¹ | – | – |
| SGVWP-LVKTA | – | – | 0 M⁻¹ s⁻¹ | 0 M⁻¹ s⁻¹ |
| SGVYR-LELTA | – | – | 113.394 M⁻¹ s⁻¹ | 0 M⁻¹ s⁻¹ |
| SGWAS-MRLTA | 0 M⁻¹ s⁻¹ | 142.481 M⁻¹ s⁻¹ | – | – |
| SGWLN-LRSTA | – | – | 1154.21 M⁻¹ s⁻¹ | 726.013 M⁻¹ s⁻¹ |
| SGYAG-LRQTA | 231.616 M⁻¹ s⁻¹ | 0 M⁻¹ s⁻¹ | – | – |
| SGYAH-MRVTA | 0 M⁻¹ s⁻¹ | 0 M⁻¹ s⁻¹ | – | – |
| SGYLP-LLYTA | 1196.62 M⁻¹ s⁻¹ | 12792.1 M⁻¹ s⁻¹ | – | – |
| SGYMH-IKVTA | 0 M⁻¹ s⁻¹ | 0 M⁻¹ s⁻¹ | – | – |
| SGYRF-MTLTA | 0 M⁻¹ s⁻¹ | 0 M⁻¹ s⁻¹ | – | – |
| SIPNA-LTASG | 12792.1 M⁻¹ s⁻¹ | 9740.44 M⁻¹ s⁻¹ | – | – |
| SKIRF-LTASG | – | – | 5269.78 M⁻¹ s⁻¹ | 9740.44 M⁻¹ s⁻¹ |
| SKVLF-LTASG | 3079.62 M⁻¹ s⁻¹ | 3079.62 M⁻¹ s⁻¹ | – | – |
| SLPAH-ITASG | – | – | 12792.1 M⁻¹ s⁻¹ | 5461.43 M⁻¹ s⁻¹ |
| SLYRA-LTASG | 7386.83 M⁻¹ s⁻¹ | 5667.28 M⁻¹ s⁻¹ | – | – |
| SMPRM-LTASG | 12792.1 M⁻¹ s⁻¹ | 10866.7 M⁻¹ s⁻¹ | – | – |
| SPAHG-LTASG | – | – | 10866.7 M⁻¹ s⁻¹ | 1239.69 M⁻¹ s⁻¹ |
| SPALD-MTASG | – | – | 0 M⁻¹ s⁻¹ | 231.616 M⁻¹ s⁻¹ |
| SRPLN-LTASG | – | – | 6688.74 M⁻¹ s⁻¹ | 7386.83 M⁻¹ s⁻¹ |
| SRPRM-LTASG | – | – | 7815.03 M⁻¹ s⁻¹ | 8321.48 M⁻¹ s⁻¹ |
